Reference: patent US20110171328A1, “PHARMACEUTICAL COMPOSITION FOR TREATING DIABETES” (priority 2008, published 2011)

Tests used:
α-D-glucosidase = test: Determination of α-D-glucosidase inhibitory activity (PNPG colorimetry at 400 nm); type: biochemical; details: 30 μL inhibitor sample solution in total, from 5 μmol/mL stock solutions, total amount of DNJ and Fag constant, 37° C.
From the text: Determination of α-D-glucosidase inhibitory activity of the combination compatibility of 1-deoxynojirimycin and fagomine. 1. Medicines: 1-deoxynojirimycin and fagomine, homemade. 2. Reagents: potassium dihydrogen phosphate, sodium hydroxide, sodium bicarbonate, para-nitrophenyl glucoside (PNPG), reduced glutathione and α-D-glucosidase sucrose. 3. Instrument: TU-1901 UV-Vis spectrophotometer. 4. Test method and results (1) Preparation of potassium phosphate buffer solution: dissolve 0.68120 g of potassium dihydrogen phosphate in 25 mL of distilled water, obtain stock solution 1, dissolve 0.2 g of NaOH in 25 mL of the distilled water, obtain stock solution 2, suck the stock solution 1 (25 mL), add into the stock solution 2 (11.8 mL), shake up, dilute to 100 mL and obtain the potassium phosphate buffer solution. (2) Na2CO[…] solution: […] Take 250 μL of the 1-deoxynojirimycin stock solution, dilute to 1 mL with the distilled water, and obtain the stock solution 1. Take 250 μL of the fagomine stock solution, dilute to 1 mL with the distilled water, and obtain the stock solution 2. […] (9) Determination reaction of α-D-glucosidase inhibitory activity Add the reagents according to the sequence in Table 1 for reaction, determine the absorbance value and calculate the α-glycosidase inhibition ratio of a sample according to the following formula: [formula] […]

[1] = tested on: NOD mice with spontaneous hyperglycemia; test: Blood glucose of mice with spontaneous hyperglycemia after 14 days intragastric administration; type: in vivo; details: for Blood glucose after administration: 1 h after administration at day 14, fasted 6 h, X ± SD; for Blood glucose before administration: n=10, X ± SD
Procedure: (§1) Impacts of the composition in different doses on blood glucose and serum insulin of mice with spontaneous hyperglycemia
(§2) 1, Medicines: 1-deoxynojirimycin and fagomine, prepared by the inventor. The two are prepared into the required concentrations with distilled water before the test (the sum of the concentrations of the 1-deoxynojirimycin and the fagomine in the composition is the same as the concentration of the fagomine or the 1-deoxynojirimycin which is prepared alone). Glibenclamide is obtained from Hunan Dongting Pharmaceutical Co., Ltd. 2. Animals: NOD mice with the weight of 25-35 g, provided by Experimental Animal Center, Peking University Health Science Center. Determine the blood glucose before the test and select the animals with the blood glucose value of above 11.1 mmol/L for carrying out the test. 3. Determination instrument: Yicheng blood glucose tester, developed by Beijing Yicheng Bioelectronic Technology Co., Ltd. 4. Main reagents: ^125I-insulin radioimmunoassay kit, produced by Department of Isotopes, China Institute of Atomic Energy. 5. Test method and results (1) Impacts on the blood glucose of the mice: determine the blood glucose of the NOD mice after fasting for 6 h, select 70 animals with blood glucose above 11.1 mmol/L, randomly divide into seven groups, respectively carry out intragastric administration and give the following medicines: i) control group (distilled water); ii) glibenclamide group (50 mg/kg); and iii)-v) composition in different mixing ratios (20 mg/kg, with different medicine proportions and constant total amount). Carry out the continuous administration for 14 days, fast for 6 h before the administration at the 14th day, draw blood from the animals 1 h after the administration, use the Yicheng blood glucose tester to determine the blood glucose value of the animals, and determine the serum insulin by radioimmunoassay.

[2] = tested on: NOD mice with spontaneous hyperglycemia; test: Serum insulin of mice with spontaneous hyperglycemia (radioimmunoassay); type: in vivo; details: for Serum insulin: 1 h after administration at day 14, X ± SD; for Effect on serum insulin of the NOD mice, result in words: 20 mg/kg, 14 days
Procedure: as §1, §2

[3] = tested on: SD rats with streptozotocin-induced hyperglycemia; test: Blood glucose of rats with streptozotocin-induced hyperglycemia after intragastric sucrose; type: in vivo; details: STZ rats, 60 mg/kg intragastric for 14 days
Procedure: Medicines: 1-deoxynojirimycin-fagomine mixture (2:1), homemade. The mixture is prepared to the required concentration with distilled water before the test. Glucobay is obtained from Bayer Healthcare Co., Ltd. Catechin, ginkgo biloba extract and flavonoids from mulberry leaves were obtained from Hunan Geneham Biomedical Technology Ltd. 2. Animals: SD rats with the weight of 180-220 g, half male and half female, provided by Hunan Institute of Pharmaceutical Industry Research. Modeling method: carry out small dose intravenous injection of 25 mg/kg of streptozotocin on the rats after fasting for 24 h, once a week, simultaneously heat feed for feeding, induce H type diabetes, determine the blood glucose 1 week after the second injection, and select the animals with the fasting blood glucose of above 7.8 mmol/L for carrying out the test. […] Reagents: streptozotocin, product of Sigma Company, USA. Use citric acid buffer solution (PH=4.0) before modeling, and prepare at low temperature; sucrose, analytically pure. […] PLUS blood glucose monitoring meter. […]

[4] = 20 mg/kg intragastric for 14 days
[5] = 50 mg/kg intragastric for 14 days

Row | Compound | α-glycosidase inhibition ratio % (α-D-glucosidase) [%] | Blood glucose after administration [1, 4] [mmol/L] | Blood glucose before administration ([1]; 20 mg/kg intragastric) [mmol/L] | Effect on blood glucose of the NOD mice, result in words ([1]; 20 mg/kg, 14 days) | Serum insulin [2, 4] [MIU/L] | Effect on serum insulin of the NOD mice, result in words [2] | Blood glucose after administration [1, 5] [mmol/L] | Blood glucose before administration ([1]; 50 mg/kg intragastric) [mmol/L] | Serum insulin [2, 5] [MIU/L] | Blood glucose value of rats with hyperglycemia, after administration ([3]; day 14, 1.0 h after 5.0 g/kg sucrose) [mmol/L] | Blood glucose value of rats with hyperglycemia, before administration ([3]; day 14, fasted 6 h, before sucrose administration) [mmol/L]
1 | OCC1NCC(O)C(O)C1O (stereo not shown) [DNJ] | 44 | 10.60 ± 2.13 | 14.20 ± 1.33 | significantly reduce the blood glucose | 16.14 ± 2.63 | little effect |  |  |  |  | 
2 | OC[C@H]1NCC[C@@H](O)[C@@H]1O [Fagomine, fagomine] | 21 | 12.24 ± 1.62 | 13.49 ± 1.65 |  | 21.78 ± 3.34 | significantly improve the serum insulin level |  |  |  |  | 
3 | COc1ccc(Cl)cc1C(=O)NCCc1ccc(S(=O)(=O)NC(=O)NC2CCCCC2)cc1 [Glibenclamide] |  |  |  |  |  |  | 10.57 ± 2.17 | 13.26 ± 2.26 | 22.57 ± 3.05 |  | 
4 | Catechin |  |  |  |  |  |  |  |  |  | 14.10 ± 1.50 | 9.17 ± 0.89
